Reference: article PMC5785531, “Pharmacokinetic parameters explain the therapeutic activity of antimicrobial agents in a silkworm infection model” (Scientific Reports, 2018)
In brackets after ≈: the same amount, converted by molar mass.

What was measured:
[1] = tested on: Bacillus subtilis JCM2499; assay: MIC by broth microdilution assay; format: cell-based; details: median of three experiments
Method: (§1) Antimicrobial activity was assessed by determining the MIC by broth dilution assay according to our previous reports[21],[35],[36] as per the Clinical and Laboratory Standards Institute[37]. Briefly, serial dilutions of compound 5, compound 7, and positive controls were prepared in cation-adjusted Mueller-Hinton Broth (MHB, Difco, Franklin Lakes, NJ, USA), 100 µl of which was dispensed into each well of a round-bottomed 96-well plate. The final concentrations in the well ranged from 128 µg/ml to 0.0625 µg/ml. Bacteria were grown at 37 °C overnight on either Luria Bertani (tryptone 10 g/l, yeast extract 5 g/l, NaCl 10 g/l) or Tryptic Soy Broth (TSB, Difco) agar plates or sheep blood agar plates (Eiken Chemical Co. Ltd., Tokyo, Japan). Bacterial inoculum was prepared by direct suspension of the colonies in 0.9% saline, and adjusted to obtain a turbidity equivalent to a 0.5 McFarland standard using a spectrophotometer UV-1280 (Shimadzu Corp., Kyoto, Japan). The suspension was then diluted 1:20 in cation-adjusted MHB (Difco), and 10 µl of it was inoculated into each well of previously prepared 96-well plates containing compounds to obtain approximately 5 × 10^4 colony forming units/well and incubated at 37 °C for 20 h. […] Vancomycin (Wako Pure Chemicals) or norfloxacin (Sigma Aldrich, St Louis, MO, USA) were used as positive controls. Each plate contained a growth control well and a vehicle control well. The MIC was determined as the minimum concentration that inhibited the growth of the bacteria.

Escherichia coli W3110 = assay: MIC by broth microdilution assay; format: cell-based; details: median of three experiments
Method: as §1

Bacillus cereus JCM20037 = assay: MIC by broth microdilution assay; format: cell-based; details: median of three experiments
Method: as §1

[2] = tested on: USA300 FPR3757 (clinical isolate); assay: MIC by broth microdilution assay; format: cell-based; details: Staphylococcus aureus, MRSA, median of three experiments
Method: as §1

Smith ATCC13709 = assay: MIC by broth microdilution assay; format: cell-based; details: Staphylococcus aureus, ATCC 13709 / MSSA, median of three experiments
Method: as §1

[3] = tested on: Vancomycin- resistant E. faecalis EF5; assay: MIC by broth microdilution assay; format: cell-based; details: Enterococcus faecalis, median of three experiments
Method: as §1

MSSA1 (clinical isolate) = assay: MIC by broth microdilution assay; format: cell-based; details: Staphylococcus aureus, MSSA, median of three experiments
Method: as §1

Newman = assay: MIC by broth microdilution assay; format: cell-based; details: Staphylococcus aureus, MSSA, median of three experiments
Method: as §1

[4] = tested on: Pseudomonas aeruginosa PAO1; assay: MIC by broth microdilution assay; format: cell-based; details: median of three experiments
Method: as §1

[5] = tested on: Listeria monocytogenes 10403S; assay: MIC by broth microdilution assay; format: cell-based; details: median of three experiments
Method: as §1

NCTC8325 = assay: MIC by broth microdilution assay; format: cell-based; details: Staphylococcus aureus, MSSA / NCTC 8325, median of three experiments
Method: as §1

[6] = tested on: Staphylococcus pseudintermedius JCM17571; assay: MIC by broth microdilution assay; format: cell-based; details: median of three experiments
Method: as §1

[7] = Pharmacokinetics in silkworm hemolymph after intra-hemolymph injection; format: in vivo, Silkworms (Bombyx mori); details: for Cmax / AUC(0-t) / k el / AUC(0-inf) / C0 / clearance / MRT inf / Vd / half-life: Hu•Yo × Tsukuba•Ne, 50 ug, injected dose 50 μg intra-hemolymph; for AUC(0-t): 0 to last measured value (5 h); for k el: PKSolver non-compartment analysis, read-out: Lambda_z (converted); for AUC(0-inf): extrapolated to infinity; for C0: read-out: C0 (initial concentration, extrapolated time-zero value); for clearance: read-out: Cl (total clearance); for MRT inf: read-out: MRT 0-inf (mean residence time) (converted); for Vd: read-out: Vss (volume of distribution at steady state); for half-life: read-out: t1/2 (half-life at terminal phase)
Method: To gain an insight into the reason for the difference in the therapeutic activities of compounds 5 and 7, we evaluated the pharmacokinetic properties of both compounds in vivo in silkworms. We injected silkworms into the hemolymph with compound 5 or compound 7 (50 µg each) and collected the hemolymph from each injected silkworm at different time-points for high performance liquid chromatography (HPLC) analysis. The concentration-time profile was plotted and the pharmacokinetic parameters were analyzed using PKSolver[32] (Fig. 3a,b). […] The volume of distribution at steady state (Vss) value of compound 7 was larger than that of compound 5, further indicating the higher distribution capacity of compound 7 compared with compound 5. The concentrations of compounds 5 and 7 in the hemolymph decreased with time, with compound 7 having faster rate of elimination than compound 5. At 5 h, the concentration of compound 5 in the hemolymph was approximately 10-fold higher than that of 7. […] Both the area under the curves (AUC) at 5 h and that extrapolated to infinity were higher for compound 5 than for compound 7 in the silkworm.
Silkworms larvae hatched from eggs (Hu•Yo × Tsukuba•Ne, Ehime Sanshu, Ehime, Japan) were fed Silkmate 2S (Nosan Corporation, Yokohama, Japan) and grown at 27 °C until the fourth molt stage. They were, then, fed an antibiotic-free artificial food, Silkmate (Katakura Industries Co., Ltd., Tokyo, Japan), on the first day of fifth-instar larval stage. The next day, larvae (~2 g) were injected into the hemolymph with 50 µg of compounds 5 and 7 using a 1 ml syringe with a 27 G needle (Terumo Corporation, Tokyo, Japan). Silkworms were incubated after injection at 27 °C without feeding. The hemolymph was harvested from the limbs of individual silkworms at the indicated time, and the silkworms were killed after the harvest. The harvested hemolymph was mixed with an equal volume of acetonitrile followed by centrifugation at 15, 000 rpm for 10 min at 4 °C. The supernatant was collected, evaporated, and dissolved into 50% acetonitrile. The samples thus prepared were analyzed by high performance liquid chromatography (HPLC) equipped with a Waters 2998 Photodiode Array Detector (Waters Corporation, Milford, MA, USA) and a Waters 2707 Autosampler (Waters) using a Senshu-Pak Pegasil ODS-SP-100 column (4.6 Ø × 250 mm; Senshu Scientific, Tokyo, Japan) with gradient elution of 50–100% acetonitrile for 30 min at a flow rate of 1 ml/min. Standard curves for each compound were drawn by measuring the peak area on HPLC charts, and the amounts of each compound in the sample were determined. Mean concentrations from triplicate experiments were determined for each time-point and the pharmacokinetic parameters were determined using the PKSolver 2.0 ‘add-in’ for Excel 2007 on a computer running Windows 7[32]. Non-compartment analysis was performed with area under the curve calculated using the linear trapezoidal method. The terminal elimination slope, λz was calculated based on default parameters. Statistical analysis was performed using Prism 5 for Mac OS X, version 5.0 f (GraphPad Software, La Jolla, CA).

S. aureus MRSA4 = assay: MIC against S. aureus MRSA4 in vitro (broth dilution); format: cell-based; details: Staphylococcus aureus
Excerpt: We synthesized 50 compounds (Fig. 2, Supplementary Table 1) using the Steglich esterification scheme[31] in the presence of a […], 1-ethyl-3-(3-dimethylaminopropyl)-carbodiimide hydrochloride (Fig. 1b). Antimicrobial activities of the compounds were examined by determining the MIC against S. aureus MRSA4 in vitro; therapeutic activities were examined using a systemic infection model of silkworms infected with S. aureus MSSA1. […]
as §1

[8] = MRSA, MRSA4 (clinical isolate), median of three experiments (Table 1)
[9] = S. aureus MRSA4 in vitro, SAR series (Fig. 2)

Compound	MIC [1] [µg/mL]	MIC (Escherichia coli W3110) [µg/mL]	MIC (Bacillus cereus JCM20037) [µg/mL]	MIC [2] [µg/mL]	MIC (Smith ATCC13709) [µg/mL]	MIC [3] [µg/mL]	MIC (MSSA1 (clinical isolate)) [µg/mL]	MIC (Newman) [µg/mL]	MIC [4] [µg/mL]	MIC [5] [µg/mL]	MIC (NCTC8325) [µg/mL]	MIC [6] [µg/mL]	Cmax [7] [ng/mL]	AUC(0-t) [7] [ng·h/mL]	k el [7] [s⁻¹]	AUC(0-inf) [7] [ng·h/mL]	C0 [7] [ng/mL]	clearance [7] [mL/min]	MRT inf [7] [h]	Vd [7] [L]	also measured
O=C(OCc1cc(Cl)cc(Cl)c1)c1ccc([N+](=O)[O-])s1 [compound 5]	1 (≈ 3.01 µM)	> 128	1 (≈ 3.01 µM)	1 (≈ 3.01 µM)	0.5 (≈ 1.51 µM)	> 128	0.5 (≈ 1.51 µM)	0.5 (≈ 1.51 µM)	> 128	> 128	0.5 (≈ 1.51 µM)	0.125 (≈ 0.376 µM)	23000	3000	8.33e-05	3480	24000	0.23	2.08	0.03	half-life [7]: 2.33 h; concentration in the hemolymph relative to compound 7 ([7]; at 5 h after injection of 50 µg): approximately 10 fold; MIC (S. aureus MRSA4; [8]): 0.5 µg/mL (≈ 1.51 µM); MIC (S. aureus MRSA4; [9]): 0.5 µg/mL (≈ 1.51 µM)
O=C(OCc1ccccc1)c1ccc([N+](=O)[O-])s1 [compound 7]	1 (≈ 3.8 µM)	> 128	1 (≈ 3.8 µM)	1 (≈ 3.8 µM)	0.5 (≈ 1.9 µM)	> 128	1 (≈ 3.8 µM)	1 (≈ 3.8 µM)	> 128	> 128	1 (≈ 3.8 µM)	0.5 (≈ 1.9 µM)	7000	733	0.000217	733	7000	1.1	0.733	0.044	half-life [7]: 0.883 h; MIC (S. aureus MRSA4; [8]): 1 µg/mL (≈ 3.8 µM); MIC (S. aureus MRSA4; [9]): 1 µg/mL (≈ 3.8 µM)
